Laboratory results published in patent EP4800015A1, “AZABICYCLO DERIVATIVE AND PREPARATION METHOD THEREFOR, AND USE” (Zhejiang Hisun Pharmaceutical Co., Ltd., priority 2023, dated 2025).

What was measured:
recombinant human WRN = molecular target: T1, recombinant human WRN (Homo sapiens, UniProt Q14191); test: Inhibition of WRN enzyme activity (ATPase), ADP-Glo Kinase Assay; format: biochemical; conditions: WRN protein 5 nM, Flap 0.1 nM, ATP 30 µM; read-out: IC50
T1 construct: purchased BPS 101264
T1 sequence (Q14191 whole entry): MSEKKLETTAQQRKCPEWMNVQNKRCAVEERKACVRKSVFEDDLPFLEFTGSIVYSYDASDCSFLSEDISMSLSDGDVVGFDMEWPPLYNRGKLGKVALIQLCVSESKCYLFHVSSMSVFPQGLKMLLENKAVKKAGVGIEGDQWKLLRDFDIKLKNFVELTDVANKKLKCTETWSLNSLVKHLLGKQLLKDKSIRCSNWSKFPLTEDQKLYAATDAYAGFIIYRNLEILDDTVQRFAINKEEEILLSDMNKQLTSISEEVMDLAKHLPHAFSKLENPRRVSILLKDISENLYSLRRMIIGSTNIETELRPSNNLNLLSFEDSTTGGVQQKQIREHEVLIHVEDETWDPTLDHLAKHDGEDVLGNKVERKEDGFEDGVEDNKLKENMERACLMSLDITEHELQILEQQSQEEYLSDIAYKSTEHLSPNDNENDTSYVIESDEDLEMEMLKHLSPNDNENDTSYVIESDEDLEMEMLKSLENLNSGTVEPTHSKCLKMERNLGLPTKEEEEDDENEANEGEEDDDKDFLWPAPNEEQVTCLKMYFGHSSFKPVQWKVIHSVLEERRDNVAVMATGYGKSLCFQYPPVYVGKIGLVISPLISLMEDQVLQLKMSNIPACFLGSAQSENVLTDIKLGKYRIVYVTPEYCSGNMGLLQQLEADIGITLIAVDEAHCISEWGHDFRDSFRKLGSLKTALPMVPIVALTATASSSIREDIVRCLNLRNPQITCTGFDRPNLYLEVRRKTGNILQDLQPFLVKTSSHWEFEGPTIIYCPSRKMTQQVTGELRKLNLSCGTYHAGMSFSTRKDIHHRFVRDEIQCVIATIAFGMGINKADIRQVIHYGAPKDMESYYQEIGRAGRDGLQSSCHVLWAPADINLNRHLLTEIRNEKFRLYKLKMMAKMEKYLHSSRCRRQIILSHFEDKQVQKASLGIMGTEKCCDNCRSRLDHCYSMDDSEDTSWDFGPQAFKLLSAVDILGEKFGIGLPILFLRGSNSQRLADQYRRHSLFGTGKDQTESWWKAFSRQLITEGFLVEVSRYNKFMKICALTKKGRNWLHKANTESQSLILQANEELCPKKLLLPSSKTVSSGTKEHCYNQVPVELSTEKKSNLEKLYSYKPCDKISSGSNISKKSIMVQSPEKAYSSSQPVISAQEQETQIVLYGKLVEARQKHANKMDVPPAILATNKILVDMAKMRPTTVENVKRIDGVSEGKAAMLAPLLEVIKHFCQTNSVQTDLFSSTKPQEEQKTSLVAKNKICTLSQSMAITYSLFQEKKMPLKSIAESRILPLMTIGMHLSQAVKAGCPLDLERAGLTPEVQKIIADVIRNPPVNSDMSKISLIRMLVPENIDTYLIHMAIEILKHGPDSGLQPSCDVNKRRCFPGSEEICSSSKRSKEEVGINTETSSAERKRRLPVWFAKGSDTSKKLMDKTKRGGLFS
Summary of the method: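 Recombinant human WRN (5 nM) was preincubated with compound (1000–0.004 nM) for 15 min at room temperature. Flap26 5'-flap DNA (0.1 nM) and 30 µM ATP were then added for 10 min in Tris pH 7.5, MgCl2, NaCl, BSA, Pluronic buffer. ADP was detected by ADP-Glo luminescence, and IC50 was obtained by nonlinear regression versus a 0.1% DMSO control.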

SW48 cells = test: Inhibition of SW48 cell proliferation (CellTiter-Glo); format: cell-based; conditions: Homo sapiens; SW48 cells (MSI-H), 120 hours
Summary of the method: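 SW48 (MSI-H) cells in L-15 with 10% FBS were seeded at 500 per well, cultured overnight at 37 °C, then exposed to compound at final concentrations of 10000 nM to 1.52 nM for 120 h. Viability was read by CellTiter-Glo luminescence, with inhibition relative to 0.1% DMSO. IC50 from nonlinear regression of log concentration versus inhibition.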

RL95-2 cells = test: Inhibition of RL95-2 cell proliferation (CellTiter-Glo); format: cell-based; conditions: Homo sapiens; RL95-2 cells (MSI-H), 120 hours
Summary of the method: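 RL95-2 (MSI-H) cells, 500/well in DMEM/F12 with 10% FBS, adhered overnight, then treated 120 h at 37 °C, 5% CO2 with compound at final 1.52-10000 nM. Viability by CellTiter-Glo luminescence. Inhibition relative to 0.1% DMSO control; IC50 from nonlinear regression of log concentration versus inhibition.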

Structure (SMILES)	IC50 (recombinant human WRN) [nM]	IC50 (SW48 cells) [nM]	IC50 (RL95-2 cells) [nM]
CCc1c(N2CCN(C(=O)c3ncnc(C)c3O)CC2)c(=O)n2nc(-c3cnc4c(c3)CCO4)nc2n1CC(=O)Nc1ccc(C(F)(F)F)cc1Cl [Example 162, N-(2-chloro-4-(trifluoromethyl)phenyl)-2-(2-(2,3-dihydrofuro[2,3-b]pyridin-5-yl)-5-ethyl-6-(4-(5-hydroxy-6-methylpyrimidine-4-carbonyl)piperazin-1-yl)-7-oxo-[1,2,4]triazolo[1,5-a]pyrimidin-4 (7H)-yl)acetamide]	1 to 100	1 to 100	1 to 100
CCc1c(N2CCN(C(=O)c3ncnc(C)c3O)CC2)c(=O)n2nc(-c3cc4ccccc4s3)nc2n1CC(=O)Nc1ccc(S(F)(F)(F)(F)F)cc1 [Example 98, 2-(2-(benzo[b]thiophen-2-yl)-5-ethyl-6-(4-(5-hydroxy-6-methylpyrimidine-4-carbonyl)piperazin-1-yl)-7-oxo-[1,2,4]triazolo[1,5-a]pyrimidin-4(7H)-yl)-N-(4-(pentafluoro-λ^6-sulfaneyl)phenyl)acet amide]	1 to 100	1 to 100	1 to 100
CCc1c(N2CCN(C(=O)c3ncnc(C)c3O)CC2)c(=O)n2nc(C3=CCCCCC3)nc2n1CC(=O)Nc1ccc(C(F)(F)F)cc1F [Example 49, 2-(2-(cyclohept-1-en-1-yl)-5-ethyl-6-(4-(5-hydroxy-6-methylpyrimidine-4-carbonyl)piperazin-1-yl)-7-oxo-[1,2,4]triazolo[1,5-a]pyrimidin-4(7H)-yl)-N-(2-fluoro-4-(trifluoromethyl)phenyl)acetamide]	1 to 100	1 to 100	1 to 100
CCc1c(N2CCN(C(=O)c3ncnc(C)c3O)CC2)c(=O)n2nc(-c3ccc4[nH]ccc4c3)nc2n1CC(=O)Nc1ccc(C(F)(F)F)cc1Cl [Example 102, N-(2-chloro-4-(trifluoromethyl)phenyl)-2-(5-ethyl-6-(4-(5-hydroxy-6-methylpyrimidine-4-carbonyl)piperazin-1-yl)-2-(1H-indol-5-yl)-7-oxo-[1,2,4]triazolo[1,5-a]pyrimidin-4(7H)-yl)acetamide]	1 to 100	1 to 100	1 to 100
CCc1c(N2CCN(C(=O)c3ncnc(C)c3O)CC2)c(=O)n2nc(C3=CC4CC4C3)nc2n1CC(=O)Nc1ccc(C(F)(F)F)cc1Cl (stereo not drawn) [Example 18, 2-(2-(bicyclo[3.1.0]hex-2-en-3-yl)-5-ethyl-6-(4-(5-hydroxy-6-methylpyrimidine-4-carbonyl)piperazin-1-yl)-7-oxo-[1,2,4]triazolo[1,5-a]pyrimidin-4(7H)-yl)-N-(2-chloro-4-(trifluoromethyl)phenyl)acetamide]	1 to 100	1 to 100	1 to 100
CCc1c(N2CCN(C(=O)c3ncnc(C)c3O)CC2)c(=O)n2nc(C3=CC4CC(OC)CC4C3)nc2n1CC(=O)Nc1ccc(C(F)(F)F)cc1Cl (stereo not drawn) [Example 163, N-(2-chloro-4-(trifluoromethyl)phenyl)-2-(5-ethyl-6-(4-(5-hydroxy-6-methylpyrimidine-4-carbonyl)piperazin-1-yl)-2-(5-methoxy-1,3a,4,5,6,6a-hexahydropentalen-2-yl)-7-oxo-[1,2,4]triazolo[1,5-a]pyrimidin-4(7H)-yl)acetamide]	1 to 100	1 to 100	1 to 100
CCc1c(N2CCN(C(=O)c3ncnc(C)c3O)CC2)c(=O)n2nc(-c3ccc4ccsc4c3)nc2n1CC(=O)Nc1ccc(C(F)(F)F)cc1Cl [Example 55, 2-(2-(benzo[b]thiophen-6-yl)-5-ethyl-6-(4-(5-hydroxy-6-methylpyrimidine-4-carbonyl)piperazin-1-yl)-7-oxo-[1,2,4]triazolo[1,5-a]pyrimidin-4(7H)-yl)-N-(2-chloro-4-(trifluoromethyl)phenyl)acet amide]	1 to 100	1 to 100	1 to 100
CCc1c(N2CCN(C(=O)c3ncccc3O)CC2)c(=O)n2nc(C3=CC4CC(O)CC4C3)nc2n1CC(=O)Nc1ccc(C(F)(F)F)cc1Cl (stereo not drawn) [Example 121, N-(2-chloro-4-(trifluoromethyl)phenyl)-2-(5-ethyl-2-(5-hydroxy-1,3a,4,5,6,6a-hexahydropentalen-2-yl)-6-(4-(3-hydroxypicolinoyl)piperazin-1-yl)-7-oxo-[1,2,4]triazolo[1,5-a]pyrimidin-4(7H)-yl) acetamide]	1 to 100	1 to 100	1 to 100
CCc1c(N2CCN(C(=O)c3ncnc(C)c3O)CC2)c(=O)n2nc(-c3ccc4c(ccn4CC)c3)nc2n1CC(=O)Nc1ccc(C(F)(F)F)cc1Cl [Example 183, N-(2-chloro-4-(trifluoromethyl)phenyl)-2-(5-ethyl-2-(1-ethyl-1H-indol-5-yl)-6-(4-(5-hydroxy-6-methylpyrimidine-4-carbonyl)piperazin-1-yl)-7-oxo-[1,2,4]triazolo[1,5-a]pyrimidin-4(7H)-yl)ace tamide]	1 to 100	1 to 100	1 to 100
CCc1c(N2CCN(C(=O)c3ncnc(C)c3O)CC2)c(=O)n2nc(-c3ccc4nccn4c3)nc2n1CC(=O)Nc1ccc(C(F)(F)F)cc1Cl [Example 126, N-(2-chloro-4-(trifluoromethyl)phenyl)-2-(5-ethyl-6-(4-(5-hydroxy-6-methylpyrimidine-4-carbonyl)piperazin-1-yl)-2-(imidazo[1,2-a]pyridin-6-yl)-7-oxo-[1,2,4]triazolo[1,5-a]pyrimidin-4(7H)-yl)acetamide]	1 to 100	1 to 100	1 to 100
CCc1c(N2CCN(C(=O)c3ncnc(C)c3O)CC2)c(=O)n2nc(-c3ccc4c(c3)CCO4)nc2n1CC(=O)Nc1ccc(S(F)(F)(F)(F)F)cc1 [Example 86, 2-(2-(2,3-dihydrobenzofuran-5-yl)-5-ethyl-6-(4-(5-hydroxy-6-methylpyrimidine-4-carbonyl)piperazin-1-yl)-7-oxo-[1,2,4]triazolo[1,5-a]pyrimidin-4(7H)-yl)-N-(4-(pentafluoro-λ^6-sulfaneyl)phenyl)acetamide]	1 to 100	1 to 100	1 to 100
CCc1c(N2CCN(C(=O)c3ncnc(C)c3O)CC2)c(=O)n2nc(-c3ccc4c(ccn4C(C)C)c3)nc2n1CC(=O)Nc1ccc(C(F)(F)F)cc1Cl [Example 184, N-(2-chloro-4-(trifluoromethyl)phenyl)-2-(5-ethyl-6-(4-(5-hydroxy-6-methylpyrimidine-4-carbonyl)piperazin-1-yl)-2-(1-isopropyl-1H-indol-5-yl)-7-oxo-[1,2,4]triazolo[1,5-a]pyrimidin-4(7H)-yl) acetamide]	1 to 100	1 to 100	1 to 100
CCc1c(N2CCN(C(=O)c3ncnc(C)c3O)CC2)c(=O)n2nc(-c3cc4cnccc4s3)nc2n1CC(=O)Nc1ccc(C(F)(F)F)cc1Cl [Example 153, N-(2-chloro-4-(trifluoromethyl)phenyl)-2-(5-ethyl-6-(4-(5-hydroxy-6-methylpyrimidine-4-carbonyl)piperazin-1-yl)-7-oxo-2-(thieno[3,2-c]pyridin-2-yl)-[1,2,4]triazolo[1,5-a]pyrimidin-4(7H)-yl)a cetamide]	1 to 100	1 to 100	1 to 100
CCc1c(N2CCN(C(=O)c3ncccc3O)CC2)c(=O)n2nc(C3=CC4CC(=O)CC4C3)nc2n1CC(=O)Nc1ccc(C(F)(F)F)cc1Cl (stereo not drawn) [Example 22, N-(2-chloro-4-(trifluoromethyl)phenyl)-2-(5-ethyl-6-(4-(3-hydroxypicolinoyl)piperazin-1-yl)-7-oxo-2-(5-oxo-1,3a,4,5,6,6a-hexahydropentalen-2-yl)-[1,2,4]triazolo[1,5-a]pyrimidin-4(7H)-yl)acet amide]	1 to 100	1 to 100	1 to 100
CCc1c(N2CCN(C(=O)c3ncnc(C)c3O)CC2)c(=O)n2nc(-c3ccc4cc[nH]c4c3)nc2n1CC(=O)Nc1ccc(C(F)(F)F)cc1Cl [Example 123, N-(2-chloro-4-(trifluoromethyl)phenyl)-2-(5-ethyl-6-(4-(5-hydroxy-6-methylpyrimidine-4-carbonyl)piperazin-1-yl)-2-(1H-indo1-6-yl)-7-oxo-[1,2,4]triazolo[1,5-a]pyrimidin-4(7H)-yl)acetamide]	1 to 100	1 to 100	1 to 100
CCc1c(N2CCN(C(=O)c3ncnc(C)c3O)CC2)c(=O)n2nc(-c3cc4ccncc4s3)nc2n1CC(=O)Nc1ccc(C(F)(F)F)cc1Cl [Example 132, N-(2-chloro-4-(trifluoromethyl)phenyl)-2-(5-ethyl-6-(4-(5-hydroxy-6-methylpyrimidine-4-carbonyl)piperazin-1-yl)-7-oxo-2-(thieno[2,3-c]pyridin-2-yl)-[1,2,4]triazolo[1,5-a]pyrimidin-4(7H)-yl)a cetamide]	1 to 100	1 to 100	1 to 100
CCc1c(N2CCN(C(=O)c3ncnc(C)c3O)CC2)c(=O)n2nc(-c3cc4ccccc4o3)nc2n1CC(=O)Nc1ccc(C(F)(F)F)cc1Cl [Example 19, 2-(2-(benzofuran-2-yl)-5-ethyl-6-(4-(5-hydroxy-6-methylpyrimidine-4-carbonyl)piperazin-1-yl)-7-oxo-[1,2,4]triazolo[1,5-a]pyrimidin-4(7H)-yl)-N-(2-chloro-4-(trifluoromethyl)phenyl)acetamide]	< 1	1 to 100	1 to 100
